According to patent publication US8299061B2, “Inhibitors of diacylglycerol acyltransferase” (Eli Lilly and Company, priority 2009, dated 2012):
“And” between values parts separate entries of the source, which are not always exact repeats. Equal values may be shown once. Read-outs that look alike come from different tables or passages of the source.

How the values were obtained:
recombinant human DGAT-1 = biological target: T1, recombinant human DGAT-1 (Homo sapiens, UniProt O75907); assay: DGAT-1 enzyme assay; format: biochemical; conditions: recombinant human DGAT-1 expressed in sf9 insect cells; geometric mean±standard error
T1 construct: made in house; host or cells: sf9 insect cells (recombinant baculovirus); crude cell homogenate used
T1 sequence (O75907 1-488): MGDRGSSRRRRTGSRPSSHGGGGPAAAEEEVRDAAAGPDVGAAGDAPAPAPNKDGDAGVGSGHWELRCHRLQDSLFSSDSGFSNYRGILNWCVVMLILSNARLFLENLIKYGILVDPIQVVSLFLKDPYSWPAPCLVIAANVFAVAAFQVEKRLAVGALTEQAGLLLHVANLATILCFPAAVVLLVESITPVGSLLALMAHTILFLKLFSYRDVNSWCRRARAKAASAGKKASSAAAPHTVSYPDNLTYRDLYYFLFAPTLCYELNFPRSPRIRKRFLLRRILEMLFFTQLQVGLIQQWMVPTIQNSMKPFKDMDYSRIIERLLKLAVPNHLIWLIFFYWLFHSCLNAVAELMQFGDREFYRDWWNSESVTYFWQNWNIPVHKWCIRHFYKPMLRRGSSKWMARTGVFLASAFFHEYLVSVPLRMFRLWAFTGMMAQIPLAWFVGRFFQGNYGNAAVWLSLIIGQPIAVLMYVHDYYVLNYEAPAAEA
Method: DGAT-1 enzyme assay Inhibitors of DGAT-1 are identified with an in vitro enzymatic assay which uses recombinant human DGAT-1 expressed in sf9 insect cells as an enzyme source. DGAT-1 enzyme is produced by infecting cells with recombinant baculovirus containing a DGAT-1 expression vector. After 48 hr infection cells are harvested by centrifugation, resuspended in cold 20 mM NaCl, and disrupted with a Dounce homogenizer. Fifteen milliliters of 20 mM NaCl are added to a cell pellet for each liter of infected cell suspension. DNA in the homogenate is sheared by pulling the cell extract through a 25 gauge needle. DGAT-1 activity in the baculovirus infected cell homogenate is compared to homogenate from uninfected cells to assess background enzymatic activity associated with sf9 cells.
Assays are performed in 96 well plates using a modification of the assay described by Coleman (Methods in Enzymology 209. pp 98-102 (1992)). Briefly, compounds are tested in a 1:3 serial dilution scheme from 100 μM to 1.7 nM final concentration. The enzyme reaction mixture contains substrates 250 μM 1,2-sn-diacylglycerol (Avanti Polar Lipids), 5 μM ^14C oleoyl CoA, and 45 μM oleoyl CoA in an aqueous buffer containing 150 mM Hepes buffer pH7.4, 0.7% vol/vol Triton® X-100 and Complete™ protease inhibitors. […] One hundred microliters of scintillation cocktail is then added and, after 8 hr, plates are counted. […]

mouse 3T3-L1 adipocytes = assay: Adipocyte triglyceride synthesis assay; format: cell-based; conditions: inhibition of triglyceride synthesis, 14C acetate, 4 hours, geometric mean±standard error
Method: Adipocyte Triglyceride Synthesis Assay: This assay measures the ability of compounds to inhibit triglyceride synthesis in intact mouse 3T3-L1 adipocytes. Undifferentiated 3T3-L1 cells are cultured in 96 well plates at a density of 25,000 cells per well using standard tissue culture conditions. After two days in culture, the cells are differentiated to adipocytes by placing them in media supplemented with 0.5 mM 1-methyl-3-isobutylxanthine (IBMX), 10 μg/mL insulin and 1 μM dexamethasone. After five days in culture, cells are grown in media supplemented only with 10 μg/mL insulin. Assays are performed after cells have been in culture 12 days. To begin the assay, culture media is removed from the cells and replaced with 50 μl OptiMEM® media containing 0.375 μCi/well ^14C acetate. Cells are then incubated at 37° C. in 7.5% CO2 for 4 hours. At the end of this incubation, media is removed, cells are washed once with Hank's balanced salts, and 25 μl of 0.7% Triton® X-100 is added to each well and allowed to extract the cells for 5 minutes. At the end of this period, 75 μl of a solution containing 58.8% isopropanol, 14.7% n-heptane, 11.5% water, 12.5% ethanol, and 2.5% 1N sodium hydroxide is added to each well and plates are shaken on an orbital shaker for 2 minutes. 100 μl of heptane is then added and plates are shaken for another 2 minutes. […]

Male Sprague-Dawley rats = assay: Oil bolus absorption model (plasma triglyceride after olive oil bolus); format: in vivo, rat; conditions: for ED80: dose reducing increase in plasma triglyceride by 80%
Method: Male Sprague-Dawley rats (280-320 g, n=6 per test group) on regular chow are acclimated to the test vivarium for at least 1 week prior to compound evaluation. Prior to compound testing, rats are fasted for 16 hour. Compounds are administered via oral gavage in a vehicle of 10% ethanol/90% corn oil at a volume of 1 ml/kg. Four hours after compound administration, a 0.5 ml blood sample is collected via the tail vein. Immediately following the 4 hour blood collection, a 3.0 ml bolus of olive oil is administered by oral gavage. A final blood sample is collected from the tail vein 6 hours after compound administration. Plasma is prepared from blood samples by centrifugation and analyzed for both triglyceride content, using a Hitachi 912 clinical chemistry analyzer, and test compound levels. The effective dose that reduces the increase in plasma triglyceride by 50% (ED50) and 80% (ED80) is determined DGAT-1 inhibition is indicative of the ability of the test compound to inhibit the increase in plasma triglyceride that occurs between hours 4 and 6 of the study (between 14 and 16 hours in the modified model) in vehicle treated (control) animals. In a modification of the model, compound is administered 14 hours prior to the first blood sample collection and oil bolus administration. The final blood sample is collected at 16 hours after dosing. In this longer duration version of the model, the 10% ethanol/90% corn oil vehicle is administered, without compound, at 10 hours after compound dosing to be consistent with the shorter duration version of the model. Compounds are tested substantially by the oil bolus absorption rat model method described herein.
For the compound N-[1-[[(4R)-5,6-dihydro-4H-imidazo[1,2-a][1]benzazepin-4-yl]carbamoyl]cyclopropyl]-4-ethoxy-benzamide (Examples 1, 3, 57), the three experiments used doses of 1, 3, 10 and 30 mg/kg. For the compound 4-Chloro-N-[1-[[(4R)-5,6-dihydro-4H-imidazo[1,2-a][1]benzazepin-4-yl]carbamoyl]cyclopropyl]benzamide (Examples 2, 21, 58), experiment 1 used doses of 0.3, 1, 3, 10 and 30 mg/kg, and for experiments 2 and 3, the doses used are 0.1, 0.3, 1, 3 and 10 mg/kg.
The data are analyzed using meta-analysis. The overall ED50 (ED80) is estimated as the weighted average of ED50 (ED80) from individual studies, with the weights being the inverse of variance of ED50 (ED80) estimates. The homogeneity Q-test is performed. If the test is significant at 0.10 level, a mixed-effect model is used to include both inter-study and intra-study variability. The weights are adjusted to the inverse of the sum of inter-study variance and the intra-study variance of ED50 (ED80) from individual studies. The inter-study variance is estimated by the Paule-Mandel estimator. (References: Sutton, A. J., Jones, D. R., Abrams, K. R., Sheldon, T. A., and Song, F., Methods for Meta-analysis in Medical Research London, John Wiley, ISBN 0-471-49066-0 (2000). Dersimonian R., and Kacker, R., Random-effects model for meta-analysis of clinical trials: An update, Contemporary Clinical Trials 28 p 105-114 (2007).

[1] = system: C57 B16 mice fed a high fat diet; assay: Diet-induced obese mouse model; format: in vivo; conditions: twice daily oral gavage, meta-analysis; for Vehicle controlled percent Fat Mass Change, Mean: QNMR; for Vehicle controlled percent Food Intake Change, Mean: cumulative food intake
Method: Diet-induced obese mouse model: To measure effects on body weight and food intake, compounds are tested in C57 B16 mice fed a high fat diet (Research Diets D12492). Fourteen week old mice raised on D12492 are acclimated to the test vivarium for 2 weeks on a 12 hour light/dark cycle. Seven days prior to compound testing, animals are dosed by oral gavage either once or twice daily with a suitable vehicle in order to accustom the mice to handling. On day 6 of vehicle dosing, body composition is measured by quantitative nuclear magnetic resonance (QNMR). On day seven of vehicle dosing, animals are randomized by body weight and sorted into test groups (n=8). Compound dosing, twice daily, commences after 7 days of vehicle dosing. Animals are given compound 30 minutes prior to the dark phase of the dark/light cycle and, if desired, again 5.5 hours into the dark phase. Compound dosing continues for 15 to 22 days during which time food intake and body weight are measured daily. On day 14 of the experiment, body composition is measured for a second time by QNMR. On day 15, terminal bleeds are taken from two animals per test group at 0, 2, 4, and 6 hours after the final dose for measurement of test compound levels in plasma.
The data are analyzed using a meta-analysis. For the percent Body Weight gain (loss) and percent Fat Mass gain (loss), the measure of treatment effect in the meta-analysis is the group mean difference between treatment and control group. For the percent Cumulative Food Intake Change from Control (% CFICFC), the measure of treatment effect is % CFICFC itself. The overall treatment effect is estimated as the weighted average of treatment effect from individual studies, with the weights being the inverse of variance of individual study's treatment effect estimates. The homogeneity Q-test is performed. If the test is significant at 0.10 level, then a mixed-effect model is used to include both inter-study and intra-study variability. The weights are adjusted to the inverse of the sum of inter-study variance and the intra-study variance of treatment effect estimates from individual studies. The inter-study variance is estimated by the Paule-Mandel estimator. (References: Sutton, A. J., Jones, D. R., Abrams, K. R., Sheldon, T. A., and Song, F., Methods for Meta-analysis in Medical Research London, John Wiley, ISBN 0-471-49066-0 (2000). Dersimonian R., and Kacker, R., Random-effects model for meta-analysis of clinical trials: An update, Contemporary Clinical Trials 28 p 105-114 (2007). Compounds are tested substantially by the diet-induced obese mouse model method described herein.
For N-[1-[[(4R)-5,6-dihydro-4H-imidazo[1,2-a][1]benzazepin-4-yl]carbamoyl]cyclopropyl]-4-ethoxy-benzamide (Examples 1, 3, 57), three experiments were performed at doses of 1, 3, 10 and 30 mg/kg (two of the experiments) and 3 and 30 mg/kg (one of the experiments). Because the 3 and 30 mg/kg doses are common to the experiments, these doses are used to compare the results.
For 4-Chloro-N-[1-[[(4R)-5,6-dihydro-4H-imidazo[1,2-a][1]benzazepin-4-yl]carbamoyl]cyclopropyl]benzamide (Examples 2, 21, 58), two experiments were performed at doses of 3, 10, 30 and 60 mg/kg and at 0.3, 1, 3 and 10 mg/kg. For each of the experiments, the doses are given twice per day. Because the 3 and 10 mg/kg doses are common to the experiments, these doses are used to compare the results.

## CCOc1ccc(C(=O)NC2(C(=O)N[C@@H]3CCc4ccccc4-n4ccnc43)CC2)cc1 [Example 1, N-[1-[[(4R)-5,6-dihydro-4H-imidazo[1,2-a][1]benzazepin-4-yl]carbamoyl]cyclopropyl]-4-ethoxy-benzamide]
Recombinant human DGAT-1
  IC50: 134 ± 8 nM
Mouse 3T3-L1 adipocytes
  EC50: 175 nM
Male Sprague-Dawley rats; 16 hour oil bolus study, rat, oral gavage, dose reducing increase in plasma triglyceride by 50%, individual experiments
  ED50: 1.71 mg/kg and 12.37 mg/kg and 2.92 mg/kg
Male Sprague-Dawley rats; 16 hour oil bolus study, rat, oral gavage, individual experiments
  ED80: 5.52 mg/kg and 19.61 mg/kg and 7.64 mg/kg
Male Sprague-Dawley rats; 16 hour oil bolus study, weighted average of three experiments
  ED80 Mean (meta-analysis): 7.34 mg/kg
Male Sprague-Dawley rats; Rattus norvegicus, 16 h, 16 hour oil bolus study, weighted average of three experiments, read-out: ED50 Mean (meta-analysis)
  ED50: 5.3 mg/kg
[1]; 3 mg/kg − control
  Vehicle controlled percent Fat Mass Change, Mean: −6.69%
  Vehicle controlled percent Food Intake Change, Mean: −10.11%
  Vehicle controlled percent Body Weight Change, Mean: −4.74%
[1]; 30 mg/kg − control
  Vehicle controlled percent Fat Mass Change, Mean: −8.24%
  Vehicle controlled percent Food Intake Change, Mean: −11.35%
  Vehicle controlled percent Body Weight Change, Mean: −5.31%

## O=C(NC1(C(=O)N[C@@H]2CCc3ccccc3-n3ccnc32)CC1)c1ccc(Cl)cc1 [Example 2, 4-Chloro-N-[1-[[(4R)-5,6-dihydro-4H-imidazo[1,2-a][1]benzazepin-4-yl]carbamoyl]cyclopropyl]benzamide]
Recombinant human DGAT-1
  IC50: 89 ± 0.98 nM
Mouse 3T3-L1 adipocytes
  EC50: 213 nM
Male Sprague-Dawley rats; 6 hour oil bolus study, rat, oral gavage, dose reducing increase in plasma triglyceride by 50%, individual experiments
  ED50: 0.26 mg/kg and 0.73 mg/kg and 0.57 mg/kg
Male Sprague-Dawley rats; 6 hour oil bolus study, rat, oral gavage, individual experiments
  ED80: 0.45 mg/kg and 2.22 mg/kg
Male Sprague-Dawley rats; 6 hour oil bolus study, weighted average of experiments
  ED80 Mean (meta-analysis): 0.54 mg/kg
Male Sprague-Dawley rats; Rattus norvegicus, 6 h, 6 hour oil bolus study, weighted average of experiments, read-out: ED50 Mean (meta-analysis)
  ED50: 0.32 mg/kg
[1]; 3 mg/kg − control
  Vehicle controlled percent Fat Mass Change, Mean: −9.53%
  Vehicle controlled percent Food Intake Change, Mean: −11.31%
  Vehicle controlled percent Body Weight Change, Mean: −4.65%
[1]; 10 mg/kg − control
  Vehicle controlled percent Fat Mass Change, Mean: −8.41%
  Vehicle controlled percent Food Intake Change, Mean: −8.43%
  Vehicle controlled percent Body Weight Change, Mean: −4.54%
